From ChEMBL document CHEMBL1201862, “PubChem BioAssay data set” (2004)
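Growth conditions: 96-well plates. Treatment: test compound, 48 hours, 5 concentrations. Analysis: linear interpolation between bracketing concentrations; unreached endpoints set to highest concentration. GI50 = concentration required for 50% inhibition of growth.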 Active and inactive are the calls of the source. Rule as the data show it: active = GI50 up to about 1.1 µM and inactive = higher.

Legend:
Assay in all cases: NCI tumour cell line growth inhibition, 48 h
HL-60 = tested on: HL-60
MDA-MB-231 = tested on: MDA-MB-231
COLO 205 = tested on: COLO 205
PC-3 = tested on: PC-3
CCRF-CEM = tested on: CCRF-CEM
OVCAR-8 = tested on: OVCAR-8
MDA-MB-435 = tested on: MDA-MB-435
SK-OV-3 = tested on: SK-OV-3
SF-295 = tested on: SF-295
NCI-H23 = tested on: NCI-H23
Malme-3M = tested on: Malme-3M
SW-620 = tested on: SW-620
DU-145 = tested on: DU-145
EKVX = tested on: EKVX
UACC-257 = tested on: UACC-257
OVCAR-5 = tested on: OVCAR-5
HCT-116 = tested on: HCT-116
NCI-H460 = tested on: NCI-H460
OVCAR-3 = tested on: OVCAR-3
ACHN = tested on: ACHN

Row | SMILES | GI50 (HL-60) | GI50 (MDA-MB-231) | GI50 (COLO 205) | GI50 (PC-3) | GI50 (CCRF-CEM) | GI50 (OVCAR-8) | GI50 (MDA-MB-435) | GI50 (SK-OV-3) | GI50 (SF-295) | GI50 (NCI-H23) | GI50 (Malme-3M) | GI50 (SW-620) | GI50 (DU-145) | GI50 (EKVX) | GI50 (UACC-257) | GI50 (OVCAR-5) | GI50 (HCT-116) | GI50 (NCI-H460) | GI50 (OVCAR-3) | GI50 (ACHN)
1 | CCOC(=O)CSc1[nH]c(NC(=S)Nc2ccccc2)c(C(N)=O)c1C(N)=O | 2.32 µM (inactive) | > 10 µM (inactive) | > 10 µM (inactive) | > 10 µM (inactive) | 4.95 µM (inactive) | > 10 µM (inactive) | > 10 µM (inactive) | > 10 µM (inactive) | > 10 µM (inactive) | > 10 µM (inactive) | > 10 µM (inactive) | > 10 µM (inactive) | > 10 µM (inactive) | > 10 µM (inactive) | > 10 µM (inactive) | – | – | – | – | –
2 | OCCN(C1=NCCN1)/[N+](=C/c1ccccc1O)[CH-]c1ccccc1O | > 100 µM (inactive) | > 100 µM (inactive) | > 100 µM (inactive) | > 100 µM (inactive) | > 100 µM (inactive) | > 100 µM (inactive) | > 100 µM (inactive) | > 100 µM (inactive) | > 100 µM (inactive) | > 100 µM (inactive) | > 100 µM (inactive) | > 100 µM (inactive) | > 100 µM (inactive) | > 100 µM (inactive) | > 100 µM (inactive) | > 100 µM (inactive) | > 100 µM (inactive) | > 100 µM (inactive) | > 100 µM (inactive) | > 100 µM (inactive)
3 | O=c1cc(-c2ccccc2)oc2ccc(Cl)cc12 [6-CHLOROFLAVONE] | > 46.5 µM (inactive) | 18.1 µM (inactive) | > 61.8 µM (inactive) | > 52.5 µM (inactive) | > 77.8 µM (inactive) | > 86.5 µM (inactive) | > 41.5 µM (inactive) | 68.2 µM (inactive) | 44.2 µM (inactive) | 49.9 µM (inactive) | 56.9 µM (inactive) | > 92.7 µM (inactive) | > 56.6 µM (inactive) | 17.4 µM (inactive) | > 54.5 µM (inactive) | > 100 µM (inactive) | 46.6 µM (inactive) | > 100 µM (inactive) | > 100 µM (inactive) | 61.2 µM (inactive)
4 | OCc1ccc2c(c1)CC1(C2)Cc2cc3c(cc2C1)CCC3 | 1.11 µM (active) | 1.34 µM (inactive) | 2.51 µM (inactive) | 1.19 µM (inactive) | 2.74 µM (inactive) | 10.8 µM (inactive) | 0.204 µM (active) | 11.4 µM (inactive) | 3.39 µM (inactive) | 4.3 µM (inactive) | 4.71 µM (inactive) | 1.77 µM (inactive) | 5.89 µM (inactive) | 8.04 µM (inactive) | 7.48 µM (inactive) | > 100 µM (inactive) | 3.72 µM (inactive) | 3.87 µM (inactive) | 3.02 µM (inactive) | 5.31 µM (inactive)
5 | O=[N+]([O-])c1cc(Cl)cnc1Br | 3.44 µM (inactive) | 3.45 µM (inactive) | 1.34 µM (inactive) | 7.53 µM (inactive) | 4.32 µM (inactive) | 2.12 µM (inactive) | 2.23 µM (inactive) | 10.3 µM (inactive) | 3.4 µM (inactive) | 5.52 µM (inactive) | 10.9 µM (inactive) | 3.42 µM (inactive) | 3.71 µM (inactive) | 4.19 µM (inactive) | 9.48 µM (inactive) | 3.27 µM (inactive) | 4.42 µM (inactive) | 3.95 µM (inactive) | 2.38 µM (inactive) | 2.09 µM (inactive)
6 | OC1(c2ccccc2)CC2CCC(C1)N2CCc1ccccc1 (stereo not given) | 58.9 µM (inactive) | 73.6 µM (inactive) | 17.6 µM (inactive) | 41.6 µM (inactive) | 34 µM (inactive) | 92.9 µM (inactive) | 55.5 µM (inactive) | > 100 µM (inactive) | 34.6 µM (inactive) | 53.6 µM (inactive) | > 100 µM (inactive) | 48.9 µM (inactive) | 48.4 µM (inactive) | 97.5 µM (inactive) | 24.5 µM (inactive) | 26.1 µM (inactive) | 40.3 µM (inactive) | 58.9 µM (inactive) | 85.5 µM (inactive) | 34.7 µM (inactive)
7 | O=[N+]([O-])c1ccccc1S(=O)(=O)c1cccc2c1NCCC2 | 24 µM (inactive) | > 100 µM (inactive) | 60.8 µM (inactive) | 27.9 µM (inactive) | 28 µM (inactive) | 69.3 µM (inactive) | 27.7 µM (inactive) | 68.4 µM (inactive) | 31.5 µM (inactive) | – | 48.1 µM (inactive) | > 100 µM (inactive) | 60.5 µM (inactive) | 99.3 µM (inactive) | 18 µM (inactive) | > 100 µM (inactive) | 42.7 µM (inactive) | 44.2 µM (inactive) | 40.6 µM (inactive) | 55.8 µM (inactive)
8 | O=c1oc2ccc(Cl)cc2cc1-c1cn2ccsc2n1 | 32.3 µM (inactive) | 24.6 µM (inactive) | 36.1 µM (inactive) | 52.6 µM (inactive) | 25.8 µM (inactive) | 29.4 µM (inactive) | 40.8 µM (inactive) | 83.6 µM (inactive) | 29.2 µM (inactive) | 51.9 µM (inactive) | > 100 µM (inactive) | 59.7 µM (inactive) | 95.7 µM (inactive) | 26.6 µM (inactive) | 95.1 µM (inactive) | – | 36.6 µM (inactive) | 49.9 µM (inactive) | 40 µM (inactive) | 60.5 µM (inactive)
9 | Cc1ccc(/N=C2N=C(Cl)/C(=C\c3ccccc3)N\2)cc1 | 3.9 µM (inactive) | > 100 µM (inactive) | 85.3 µM (inactive) | > 79.3 µM (inactive) | > 37.3 µM (inactive) | > 25.8 µM (inactive) | 30.6 µM (inactive) | > 100 µM (inactive) | > 79.3 µM (inactive) | > 100 µM (inactive) | > 100 µM (inactive) | > 25 µM (inactive) | 64.6 µM (inactive) | > 100 µM (inactive) | > 76.6 µM (inactive) | > 100 µM (inactive) | > 100 µM (inactive) | 78 µM (inactive) | > 100 µM (inactive) | –
10 | CCc1n[nH]c(=O)n1/N=C/c1ccc(/C=N/n2c(CC)n[nH]c2=O)cc1 | > 100 µM (inactive) | > 100 µM (inactive) | > 100 µM (inactive) | > 100 µM (inactive) | > 100 µM (inactive) | > 100 µM (inactive) | > 100 µM (inactive) | – | > 100 µM (inactive) | > 100 µM (inactive) | > 100 µM (inactive) | > 100 µM (inactive) | > 100 µM (inactive) | > 100 µM (inactive) | > 100 µM (inactive) | > 100 µM (inactive) | > 100 µM (inactive) | > 100 µM (inactive) | > 100 µM (inactive) | > 100 µM (inactive)
11 | O=C(Nc1ccccn1)/C(=C\C(=O)c1ccc(Cl)cc1)Nc1ccccc1 | > 10 µM (inactive) | > 10 µM (inactive) | > 10 µM (inactive) | > 10 µM (inactive) | > 10 µM (inactive) | > 10 µM (inactive) | > 10 µM (inactive) | > 10 µM (inactive) | > 10 µM (inactive) | > 10 µM (inactive) | > 10 µM (inactive) | > 10 µM (inactive) | > 10 µM (inactive) | > 10 µM (inactive) | > 10 µM (inactive) | – | – | – | – | –
12 | CC1CC/C(=C\c2ccc(Cl)cc2)C2OC(N)=C(C#N)C(c3ccc(Cl)cc3)=C12 (stereo not given) | 2.88 µM (inactive) | 10.4 µM (inactive) | 12.5 µM (inactive) | 11.9 µM (inactive) | 5.06 µM (inactive) | 13.9 µM (inactive) | 18.4 µM (inactive) | 18.2 µM (inactive) | – | 13.6 µM (inactive) | 14.5 µM (inactive) | 21.4 µM (inactive) | 17 µM (inactive) | 5.55 µM (inactive) | 31.6 µM (inactive) | 15.9 µM (inactive) | 12.6 µM (inactive) | – | 11.7 µM (inactive) | 16.4 µM (inactive)
13 | COI1NC(=O)c2ccccc21 | > 100 µM (inactive) | > 100 µM (inactive) | > 100 µM (inactive) | > 100 µM (inactive) | 60.4 µM (inactive) | > 100 µM (inactive) | > 100 µM (inactive) | > 100 µM (inactive) | > 100 µM (inactive) | > 100 µM (inactive) | > 100 µM (inactive) | > 100 µM (inactive) | > 100 µM (inactive) | > 100 µM (inactive) | – | > 100 µM (inactive) | > 100 µM (inactive) | – | > 100 µM (inactive) | > 100 µM (inactive)
14 | CCCCCn1c(=O)c2c(=O)[nH][nH]c2c2ccccc21 | > 100 µM (inactive) | > 100 µM (inactive) | > 100 µM (inactive) | > 100 µM (inactive) | > 100 µM (inactive) | > 100 µM (inactive) | > 100 µM (inactive) | > 100 µM (inactive) | > 100 µM (inactive) | > 100 µM (inactive) | > 100 µM (inactive) | > 100 µM (inactive) | > 100 µM (inactive) | – | > 100 µM (inactive) | > 100 µM (inactive) | > 100 µM (inactive) | > 100 µM (inactive) | > 100 µM (inactive) | > 100 µM (inactive)
15 | Cc1cc(O)c(C=O)c2c1C(=O)Oc1c(CO)c(O)c3c(c1O2)C(O)OC3=O (stereo not given) [SLAZINIC ACID] | 30.1 µM (inactive) | > 100 µM (inactive) | > 100 µM (inactive) | > 100 µM (inactive) | 43 µM (inactive) | 52.7 µM (inactive) | 39.6 µM (inactive) | 64 µM (inactive) | > 100 µM (inactive) | > 100 µM (inactive) | 41 µM (inactive) | 60 µM (inactive) | > 100 µM (inactive) | > 100 µM (inactive) | > 100 µM (inactive) | > 100 µM (inactive) | 69.8 µM (inactive) | – | 77.1 µM (inactive) | 40.1 µM (inactive)
